Literature values in patent US20250345309A1, “IMMUNE HEALTH IMPROVERS” (Amazentis SA, priority 2024, published 2025).

Details: over 4 months, middle-aged adults (Singh et al. 2022); cited from earlier work

O=c1oc2cc(O)ccc2c2ccc(O)cc12 [Urolithin A (UA)]
Safety and tolerability of long-term oral administration: safe and well tolerated
